Literature values as cited in US20120148649A1, “COMPOSITION FOR RESTORATION OF AGE RELATED TISSUE IN THE FACE OR SELECTED AREAS OF THE BODY” (priority 2004, published 2012).

What was measured:
tumor growth = conditions: deuterium concentration from 0.1 to 110 ppm; animal model studies
cancer patients = conditions: human clinical trials, hundreds of cancer patients

deuterium depleted water
effect on tumor growth (tumor growth): inhibits tumor growth
effect on life span of cancer patients (cancer patients): extended life span
